{"source": "ChEMBL document CHEMBL1122957", "about": "“Artificial siderophores. 2. Syntheses of trihydroxamate analogues of rhodotorulic acid and their biological iron transport capabilities in Escherichia coli” (1985)", "assay_type_in_all_cases": "functional, organism-based", "key": {"Escherichia coli [1]": {"test_system": "Escherichia coli", "assay": "The ability of the artificial siderophores to support the growth of Escherichia coli strain RWB7 was evaluated at the concentration of 50 uM; No growth around the disc"}, "Escherichia coli [2]": {"test_system": "Escherichia coli", "assay": "The ability of the artificial siderophores to support the growth of Escherichia coli strain AN 193 was evaluated at the concentration of 50 uM; No growth around the disc"}, "Escherichia coli [3]": {"test_system": "Escherichia coli", "assay": "The ability of the artificial siderophores to support the growth of Escherichia coli strain BN 3300 was evaluated at the concentration of 50 uM; No growth around the disc"}, "Escherichia coli [4]": {"test_system": "Escherichia coli", "assay": "The ability of the artificial siderophores to support the growth of Escherichia coli strain BN 3306 was evaluated at the concentration of 50 uM; No growth around the disc"}, "Escherichia coli [5]": {"test_system": "Escherichia coli", "assay": "The ability of the artificial siderophores to support the growth of Escherichia coli strain AN 193 was evaluated at the concentration of 50 and 500 uM; No growth around the disc"}, "Escherichia coli [6]": {"test_system": "Escherichia coli", "assay": "The ability of the artificial siderophores to support the growth of Escherichia coli strain BN 3300 was evaluated at the concentration of 50 and 500 uM; No growth around the disc"}, "Escherichia coli [7]": {"test_system": "Escherichia coli", "assay": "The ability of the artificial siderophores to support the growth of Escherichia coli strain BN 3306 was evaluated at the concentration of 50 and 500 uM; No growth around the disc"}, "Escherichia coli [8]": {"test_system": "Escherichia coli", "assay": "The ability of the artificial siderophores to support the growth of Escherichia coli strain RW 193 was evaluated at the concentration of 50 and 500 uM; No growth around the disc"}, "Escherichia coli [9]": {"test_system": "Escherichia coli", "assay": "The ability of the artificial siderophores to support the growth of Escherichia coli strain RWB7 was evaluated at the concentration of 50 and 500 uM; No growth around the disc"}, "Escherichia coli [10]": {"test_system": "Escherichia coli", "assay": "The ability of the artificial siderophores to support the growth of Escherichia coli strain RWB7 was evaluated at the concentration of 25 uM; No growth around the disc"}}, "data": [{"compound": "FERRICHROME", "values": [{"measurement": "Inhibitory diameter", "setting": "Escherichia coli [1]", "value": "Not toxic"}, {"measurement": "Inhibitory diameter", "setting": "Escherichia coli [2]", "value": "Not toxic"}, {"measurement": "Inhibitory diameter", "setting": "Escherichia coli [3]", "value": "Not toxic"}, {"measurement": "Inhibitory diameter", "setting": "Escherichia coli [4]", "value": "Not toxic"}]}, {"compound": "CN(O)C(=O)CCCCCn1c(=O)[nH]c(=O)n(CCCCCC(=O)N(C)O)c1=O", "values": [{"measurement": "Inhibitory diameter", "setting": "Escherichia coli [5]", "value": "Not toxic"}, {"measurement": "Inhibitory diameter", "setting": "Escherichia coli [6]", "value": "Not toxic"}, {"measurement": "Inhibitory diameter", "setting": "Escherichia coli [7]", "value": "Not toxic"}, {"measurement": "Inhibitory diameter", "setting": "Escherichia coli [8]", "value": "Not toxic"}, {"measurement": "Inhibitory diameter", "setting": "Escherichia coli [9]", "value": "Not toxic"}]}, {"compound": "CC(=O)N(O)CCCn1c(=O)n(CCCN(O)C(C)=O)c(=O)n(CCCN(O)C(C)=O)c1=O", "values": [{"measurement": "Inhibitory diameter", "setting": "Escherichia coli [5]", "value": "Not toxic"}, {"measurement": "Inhibitory diameter", "setting": "Escherichia coli [9]", "value": "Not toxic"}]}, {"compound": "CN(O)C(=O)CCCCCn1c(=O)n(CCCCCC(=O)N(C)O)c(=O)n(CCCCCC(=O)N(C)O)c1=O", "values": [{"measurement": "Inhibitory diameter", "setting": "Escherichia coli [5]", "value": "Not toxic"}, {"measurement": "Inhibitory diameter", "setting": "Escherichia coli [6]", "value": "Not toxic"}, {"measurement": "Inhibitory diameter", "setting": "Escherichia coli [7]", "value": "Not toxic"}, {"measurement": "Inhibitory diameter", "setting": "Escherichia coli [9]", "value": "Not toxic"}]}, {"compound": "CC(=O)N(O)CCCCCn1c(=O)n(CCCCCN(O)C(C)=O)c(=O)n(CCCCCN(O)C(C)=O)c1=O", "values": [{"measurement": "Inhibitory diameter", "setting": "Escherichia coli [5]", "value": "Not toxic"}, {"measurement": "Inhibitory diameter", "setting": "Escherichia coli [9]", "value": "Not toxic"}]}, {"compound": "CC(=O)N(O)CCCCn1c(=O)n(CCCCN(O)C(C)=O)c(=O)n(CCCCN(O)C(C)=O)c1=O", "values": [{"measurement": "Inhibitory diameter", "setting": "Escherichia coli [9]", "value": "Not toxic"}]}, {"compound": "O=C(N[C@H]1COC(=O)[C@@H](NC(=O)c2cccc(O)c2O)COC(=O)[C@@H](NC(=O)c2cccc(O)c2O)COC1=O)c1cccc(O)c1O", "values": [{"measurement": "Inhibitory diameter", "setting": "Escherichia coli [10]", "value": "Not toxic"}]}, {"compound": "CC(=O)N(O)CCC[C@@H]1NC(=O)[C@H](CCCN(O)C(C)=O)NC1=O", "values": [{"measurement": "Inhibitory diameter", "setting": "Escherichia coli [1]", "value": "Not toxic"}, {"measurement": "Inhibitory diameter", "setting": "Escherichia coli [3]", "value": "Not toxic"}, {"measurement": "Inhibitory diameter", "setting": "Escherichia coli [4]", "value": "Not toxic"}]}]}
